The source of these data is US20070066646A1, “Compounds for Inhibiting Copper-Containing Amine Oxidases and Uses Thereof” (GENMEDICA THERAPEUTICS SL, priority 2005, published 2007).

Each structure is given as a SMILES string.

What is called IC50 is the concentration that gives 50% inhibition.

This assay addresses T1, Human SSAO (Homo sapiens, UniProt Q16853).
T1 construct: Human or mice adipose tissue homogenates, used as a source of SSAO activity; from tissue; host or cells: human adipose tissue homogenate
T1 sequence (Q16853 1-763): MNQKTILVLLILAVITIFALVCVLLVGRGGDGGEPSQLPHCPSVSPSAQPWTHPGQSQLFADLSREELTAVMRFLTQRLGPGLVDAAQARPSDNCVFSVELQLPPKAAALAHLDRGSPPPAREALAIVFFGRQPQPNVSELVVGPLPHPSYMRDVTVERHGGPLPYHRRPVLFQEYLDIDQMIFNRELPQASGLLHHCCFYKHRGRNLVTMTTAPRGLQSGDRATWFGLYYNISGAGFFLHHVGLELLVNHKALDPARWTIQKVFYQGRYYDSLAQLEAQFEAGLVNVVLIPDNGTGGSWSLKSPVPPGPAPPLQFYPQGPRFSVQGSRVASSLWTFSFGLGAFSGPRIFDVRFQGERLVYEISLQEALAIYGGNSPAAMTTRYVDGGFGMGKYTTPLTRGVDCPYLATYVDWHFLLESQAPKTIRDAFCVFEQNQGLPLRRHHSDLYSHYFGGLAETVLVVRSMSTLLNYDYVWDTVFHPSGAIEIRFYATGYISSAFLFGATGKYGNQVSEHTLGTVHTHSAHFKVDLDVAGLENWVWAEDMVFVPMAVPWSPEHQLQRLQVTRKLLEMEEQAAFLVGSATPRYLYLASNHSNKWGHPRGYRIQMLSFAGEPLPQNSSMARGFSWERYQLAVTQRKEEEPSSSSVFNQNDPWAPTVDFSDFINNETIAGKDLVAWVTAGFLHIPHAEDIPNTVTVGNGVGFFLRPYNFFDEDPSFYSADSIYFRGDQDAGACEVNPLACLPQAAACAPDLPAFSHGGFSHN
The experiment in a line: SSAO activity determination (H2O2 detection with horseradish peroxidase/Amplex Red, benzylamine as substrate). It is filed as biochemical. The settings on record: human adipose tissue homogenates as SSAO source, 20 min preincubation at 37° C., semicarbazide control subtracted. As to the method:
SSAO Activity Determination:
All assays were performed at 37° C. with SSAO from human or mice adipose tissue. The enzyme activity was measured through detection of hydrogen peroxide formed by the oxidation of benzylamine. This method is based on the horseradish peroxidase catalyzed hydrogen peroxide oxidation of 10-acetyl-3,7-dihydroxyphenoxazine (Molecular Probes A-6550), that produces resorufin a highly fluorescent product (excitation, 545 nm; emission, 590 nm) (Zhou and Panchuk-Voloshina, 1997). Human or mice adipose tissue homogenates, used as a source of SSAO activity, were preincubated in 96 well microplates for 20 min at 37° C. in 180 μL of 200 mM Phosphate buffer and H2O2-detecting mixture containing horseradish peroxidase (final concentration 1 U/mL) and Amplex Red reagent (60 μM) and different concentrations of inhibitors when necessary. Catalytic reaction was initiated by addition of 20 μL of benzylamine as substrate at 10 mM for human homogenates giving final concentrations of 100 μM and 1 mM respectively. Fluorescence intensity of the samples was measured continuously during 1 h (excitation, 545 nm; emission, 590 nm) and H2O2 concentration was calculated from calibration curves generated by serial dilutions of standard H2O2. To evaluate the amount of H2O2 formed specifically via SSAO-mediated reaction, semicarbazide 100 μM was included in the control wells subjected to the same treatments and these values were subtracted from the total amount of H2O2 formed.
The inhibition was measured as % decrease of the signal compared to a control without inhibitor. Blank values in absence of substrates were subtracted from the fluorescence for each experimental condition. The IC50 shown in Table 1 were calculated with GraphPad Prism 4 program.
Compound `O=C(NO)C1Cc2ccccc2C1` [compound 2] yielded an IC50 of 1.1 ± 0.04 µM. Turning to `O=C(CNC(=O)c1ccc(Br)cc1)NO` [compound 3], the IC50 was found to be 0.1 ± 0.03 µM. To `O=C(NO)C(CO)NS(=O)(=O)c1ccc(-c2ccccc2)cc1` (stereo not shown) [compound 5] belongs 0.25 ± 0.02 µM; to `CC(O)C(NS(=O)(=O)c1ccc(-c2ccccc2)cc1)C(=O)NO` (stereo not shown) [compound 6], 0.3 ± 0.1 µM; to `NCC(NS(=O)(=O)c1ccc(-c2ccccc2)cc1)C(=O)NO` (stereo not shown) [compound 7], 1.9 ± 0.2 µM. To `CCCc1ccc(S(=O)(=O)NC(CO)C(=O)NO)cc1` (stereo not shown) [compound 8] belongs 0.066 ± 0.001 µM; to `CCCc1ccc(S(=O)(=O)NC(C(=O)NO)C(C)O)cc1` (stereo not shown) [compound 9], 0.136 ± 0.04 µM.

As for `CCC(C)(C)c1ccc(S(=O)(=O)NC(CO)C(=O)NO)cc1` (stereo not shown) [compound 10], the IC50 was 0.041 ± 0.008 µM. Then `CCC(C)(C)c1ccc(S(=O)(=O)NC(C(=O)NO)C(C)O)cc1` (stereo not shown) [compound 11], with 0.004 ± 0.0005 µM; and `CCC(C)(C)c1ccc(S(=O)(=O)NCC(=O)NO)cc1` [compound 12], with 1.57 ± 0.175 µM; and `O=C(NO)C(CO)NS(=O)(=O)c1ccc2ccccc2c1` (stereo not shown) [compound 13], with 0.067 ± 0.001 µM. To `CC(O)C(NS(=O)(=O)c1ccc2ccccc2c1)C(=O)NO` (stereo not shown) [compound 14] belongs 0.054 ± 0.007 µM; to `O=C(CNS(=O)(=O)c1ccc2ccccc2c1)NO` [compound 15], 0.217 ± 0.039 µM; to `O=C(CNS(=O)(=O)c1ccc2ccccc2c1)NO` [compound 17], 0.217 ± 0.039 µM. Then `Cc1ccc(S(=O)(=O)NC(C(=O)NO)C(C)O)cc1` (stereo not shown) [compound 18], with 0.041 ± 0.001 µM; and `Cc1ccc(S(=O)(=O)NC(CN)C(=O)NO)cc1` (stereo not shown) [compound 19], with 0.14 ± 0.03 µM. Consider `CC(O)C(NS(=O)(=O)c1ccc2cccnc2c1)C(=O)NO` (stereo not shown) [compound 20], for which the IC50 was determined as 0.789 ± 0.061 µM. Then `CN(C)c1cccc2ccc(S(=O)(=O)NC(CO)C(=O)NO)cc12` (stereo not shown) [compound 21], with 0.097 ± 0.021 µM; and `CC(O)C(NS(=O)(=O)c1ccc2cccc(N(C)C)c2c1)C(=O)NO` (stereo not shown) [compound 22], with 0.369 ± 0.071 µM. To `Cc1ccc(S(=O)(=O)NCc2ccc(C(=O)NO)cc2)cc1` [compound 23] belongs 0.7 ± 0.04 µM. To `Cc1ccc(C2(C(=O)NCc3ccc(C(=O)NO)cc3)CCCC2)cc1` [compound 24] belongs 0.334 ± 0.08 µM; to `O=C(CCc1ccccc1O)NCc1ccc(C(=O)NO)cc1` [compound 25], 0.941 ± 0.026 µM; to `O=C(O)CCC(NC(=O)Cc1ccc(-c2ccccc2)cc1)C(=O)O` (stereo not shown) [compound 26], 0.125 ± 0.002 µM. The compound `Cc1ccc(C2(C(=O)NC(CCC(=O)NO)C(=O)O)CCCC2)cc1` (stereo not shown) [compound 27] returned an IC50 of 0.214 ± 0.041 µM. Then `O=C(O)CCC(NC(=O)CCCc1ccccc1)C(=O)O` (stereo not shown) [compound 28], with 0.229 ± 0.092 µM; and `Cc1ccc(CCCC(=O)NC(CCC(=O)O)C(=O)O)cc1` (stereo not shown) [compound 29], with 0.259 ± 0.062 µM; and `O=C(O)CCC(NC(=O)c1cc2ccccc2[nH]1)C(=O)O` (stereo not shown) [compound 30], with 0.165 ± 0.007 µM. Then `Cc1ccc(/C=C/C(=O)NC(CCC(=O)O)C(=O)O)cc1` (stereo not shown) [compound 31], with 0.128 ± 0.03 µM; and `NC(=O)C1CCCN1C(=O)c1ccc(-c2ccccc2)cc1` (stereo not shown) [compound 32], with 0.121 ± 0.047 µM; and `CC(C)(C)c1ccc(C(=O)N2CCCC2C(N)=O)cc1` (stereo not shown) [compound 33], with 0.09 ± 0.002 µM.

On to `NC(=O)C1CCCN1C(=O)c1cc2ccccc2cc1O` (stereo not shown) [compound 34], for which half-maximal inhibition (IC50) was put at 0.147 ± 0.044 µM. To `NC(=O)C1CCCN1C(=O)c1ccc2ncccc2c1` (stereo not shown) [compound 35] belongs 0.16 ± 0.031 µM. Then `NC(=O)C1CCCN1C(=O)c1nccc2ccccc12` (stereo not shown) [compound 36], with 0.078 ± 0.024 µM; and `CC(CCc1ccccc1)NC(=O)CCC(=O)NO` (stereo not shown) [compound 37], with 0.18 ± 0.01 µM. Then `O=C(CCC(=O)Nc1ccccc1O)NO` [compound 38], with 0.14 ± 0.01 µM; and `CC(NC(=O)CCC(=O)NO)c1ccc2ccccc2c1` (stereo not shown) [compound 39], with 0.39 ± 0.04 µM; and `Nc1ccc(C(=O)NCc2ccc(F)cc2)cc1O` [compound 40], with 0.202 ± 0.026 µM.

Compound `Nc1ccc(C(=O)NCc2ccc3ccccc3c2)cc1O` [compound 41] gave an IC50 of 0.25 ± 0.056 µM.

Compound `Nc1ccc(C(=O)NCCOc2ccccc2)cc1O` [compound 42] returned an IC50 of 0.173 ± 0.009 µM.

`CC(NC(=O)c1ccc(N)c(O)c1)c1ccc2ccccc2c1` (stereo not shown) [compound 43] showed an IC50 of 0.337 ± 0.07 µM. For the compound `Nc1ccc(C(=O)NCCc2ccccc2)cc1O` [compound 44], the IC50 was found to be 0.185 ± 0.031 µM. As for `Nc1ccc(C(=O)NCCCc2ccccc2)cc1O` [compound 45], the midpoint of inhibition, the IC50, lay at 0.146 ± 0.005 µM. Then `Nc1ccc(C(=O)NCCCCc2ccccc2)cc1O` [compound 46], with 0.401 ± 0.03 µM; and `Nc1ccc(O)c(C(=O)NCc2ccccc2)c1` [compound 47], with 0.41 ± 0.063 µM; and `Nc1ccc(O)c(C(=O)NCc2ccccc2O)c1` [compound 48], with 0.074 µM. To `Nc1ccc(O)c(C(=O)NCc2ccc(F)cc2)c1` [compound 49] belongs 0.253 ± 0.002 µM; to `COc1cc(CNC(=O)c2cc(N)ccc2O)cc(OC)c1` [compound 50], 0.577 ± 0.027 µM.

Turning to `Nc1ccc(O)c(C(=O)NCc2ccc3ccccc3c2)c1` [compound 51], the midpoint of inhibition, the IC50, lay at 0.477 ± 0.064 µM. To `Nc1ccc(O)c(C(=O)NCCOc2ccccc2)c1` [compound 52] belongs 0.189 ± 0.016 µM; to `Nc1ccc(O)c(C(=O)NCCc2ccccc2)c1` [compound 53], 0.618 ± 0.118 µM; to `Nc1ccc(O)c(C(=O)NCCCc2ccccc2)c1` [compound 54], 0.575 ± 0.023 µM. To `Nc1ccc(O)c(C(=O)NCCCCc2ccccc2)c1` [compound 55] belongs 0.762 ± 0.06 µM.
